Reference: patent US6852713B2, “Lactam derivatives and methods of their use” (Adolor Corporation, priority 2003, dated 2005)

What was measured:
[1] = target: T1, cloned human δ opioid receptor (Homo sapiens, UniProt P41143); assay: In vitro binding assay, inhibition of [3H]diprenorphine binding, delta; conditions: kappa versus δ
T1 construct: expressed in transfected cells
Experimental: (§1) The potencies of the compounds of the invention were determined by testing the ability of a range of concentrations of each compound to inhibit the binding of the non-selective opioid antagonist, [^3H]diprenorphine, to the cloned human μ, κ, and δ opioid receptors, expressed in separate cell lines. IC50 values were obtained by nonlinear analysis of the data using GraphPad Prism version 3.00 for Windows (GraphPad Software, San Diego). Ki values were obtained by Cheng-Prusoff corrections of IC50 values.
(§2) The receptor binding method was a modification of the method of K. Raynor et al. (Mol. Pharmnacol. 1994, 45, 330-334). […] The filters were rinsed 4 times with 1 mL of cold 50 mM Tris HCl, pH 7.8 and radioactivity remaining on the filters determined by scintillation spectroscopy. Nonspecific binding was determined by the minimum values of the titration curves and was confirmed by separate assay wells containing 10 μM naloxone. Ki values were determined by Cheng-Prusoff corrections of IC50 values derived from nonlinear regression fits of 12 point titration curves using GraphPad Prism® version 3.00 for Windows (GraphPad Software, San Diego, Calif.).
(§3) To determine the equilibrium dissociation constant for the inhibitors (Ki), radioligand bound (cpm) in the presence of various concentrations of test compounds was measured. […]

[2] = target: T2, cloned human μ opioid receptor (Homo sapiens, UniProt P35372); assay: In vitro binding assay, inhibition of [3H]diprenorphine binding, mu; conditions: kappa versus μ
T2 construct: expressed in transfected cells
T2 sequence (P35372 whole entry): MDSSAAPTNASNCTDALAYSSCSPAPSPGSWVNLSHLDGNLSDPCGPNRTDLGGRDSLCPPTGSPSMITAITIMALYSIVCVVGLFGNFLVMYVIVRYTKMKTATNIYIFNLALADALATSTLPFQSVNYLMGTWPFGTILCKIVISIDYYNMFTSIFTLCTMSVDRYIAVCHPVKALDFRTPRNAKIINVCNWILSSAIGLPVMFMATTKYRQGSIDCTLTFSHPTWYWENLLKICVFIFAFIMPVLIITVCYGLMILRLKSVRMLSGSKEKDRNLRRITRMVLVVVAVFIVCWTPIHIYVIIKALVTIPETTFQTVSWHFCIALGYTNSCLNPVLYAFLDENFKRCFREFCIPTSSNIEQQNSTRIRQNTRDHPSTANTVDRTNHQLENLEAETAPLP
Experimental: as §1, §2, §3

[3] = target: T3, cloned human κ opioid receptor (Homo sapiens, UniProt P41145); assay: In vitro binding assay, inhibition of [3H]diprenorphine binding, kappa; conditions: read-out: Ki against the human kappa receptor
T3 construct: expressed in transfected cells
T3 sequence (P41145 whole entry): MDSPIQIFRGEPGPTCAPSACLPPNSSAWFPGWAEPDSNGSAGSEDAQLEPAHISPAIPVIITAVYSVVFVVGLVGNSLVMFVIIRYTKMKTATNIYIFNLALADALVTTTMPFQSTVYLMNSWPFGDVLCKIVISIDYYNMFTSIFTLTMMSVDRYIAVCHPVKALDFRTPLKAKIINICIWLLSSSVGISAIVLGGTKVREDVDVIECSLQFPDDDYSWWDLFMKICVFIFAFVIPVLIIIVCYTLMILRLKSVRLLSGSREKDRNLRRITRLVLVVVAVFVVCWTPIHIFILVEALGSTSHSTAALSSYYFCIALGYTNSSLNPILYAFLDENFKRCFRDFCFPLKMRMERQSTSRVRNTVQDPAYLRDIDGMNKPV
Experimental: as §1, §2, §3

[4] = system: acetic acid-induced writhing; assay: Acetic acid-induced writhing; type: in vivo, male CF-1 mice; conditions: Mus musculus, po; administered orally; read-out: ED50, block of acetic acid-induced writhing
Experimental: Injection of acetic acid into the peritoneal cavity is used as the noxious stimulus, and the number of writhing responses that occur in response to acetic acid are counted in order to quantif the response to pain.
The writhing assay is adapted from the procedure originally described by Taber et al. (J. Pharmacol. Exp. Ther. 169: 29-38,1986), using male CF-1 mice weighing 20-25 g. Animals are treated with various doses of drugs prior to the administration of an i.p. injection of 0.6% acetic acid solution. Mice are then placed into observation chambers and the number of writhing responses, as defined by a full hind limb extension and retraction, are recorded.
The mean number of writhing responses is calculated for vehicle-treated control mice, and the percent inhibition (% I) of writhing is calculated for each mouse that is treated with drug using the following formula: % I=100×(mean control writhing responses−individual test responses)(mean control writhing responses) (f) Hyperalgesia Induced by Tape Stripping

[5] = system: formalin-induced flinching; assay: In vivo formalin-induced nociception assay; design: species or system male Sprague-Dawley rats; conditions: dose of 100 μg, i.paw
Text: Administration of formalin into the paw results in a localized inflammation and a pain response that is moderate in intensity and continuous in duration. Unlike many other assays of nociception, the formalin assay measures tonic pain that is a result of tissue injury, and therefore is a model which is more relevant to clinical pain states in humans (see Tjolsen et al., Pain 51: 5-17, 1992). In the rat the response to formalin-induced pain consists of spontaneous flinching behavior, characterized by paw lifting and paw shaking, and a rapid vibration of the paw after drawing it under the body. […] The early or acute phase lasts from 0-5 minutes post-formalin and is followed by a quiescent period lasting approximately 15 minutes. The tonic phase occurs from 20-35 minutes following formalin injection and is the interval where the number of flinching responses is maximal. […]
Inflammation is induced by subcutaneous injection of […] of a 5% formalin solution into the dorsal surface of the right hind paw of male Sprague-Dawley rats weighing 70-90 g. Injections of drug are given into the dorsal surface of the paw prior to formalin injection, and flinching behavior is quantitated by counting the number of responses that occur during the tonic phase of pain, lasting from 20-35 min after formalin injection. […]

[6] = target: T4, cloned human a receptors (Homo sapiens, UniProt P41145); assay: Stimulation of [35S]GTPγS binding to membranes (agonist potency); type: biochemical
T4 construct: expressed in transfected cells
T4 sequence (P41145 whole entry): as above
Experimental: The potencies of the agonists were assessed by their abilities to stimulate [^35S]GTPγS binding to membranes containing the cloned human a receptors.
To determine the EC50 value, which was the concentration to give half-maximal stimulation of [^35S]GTPγS binding, the amount of [^35S]GTPγS bound in the presence of various concentrations of agonists was measured. The EC50 value was then determined.

T1 sequence (P41143 whole entry): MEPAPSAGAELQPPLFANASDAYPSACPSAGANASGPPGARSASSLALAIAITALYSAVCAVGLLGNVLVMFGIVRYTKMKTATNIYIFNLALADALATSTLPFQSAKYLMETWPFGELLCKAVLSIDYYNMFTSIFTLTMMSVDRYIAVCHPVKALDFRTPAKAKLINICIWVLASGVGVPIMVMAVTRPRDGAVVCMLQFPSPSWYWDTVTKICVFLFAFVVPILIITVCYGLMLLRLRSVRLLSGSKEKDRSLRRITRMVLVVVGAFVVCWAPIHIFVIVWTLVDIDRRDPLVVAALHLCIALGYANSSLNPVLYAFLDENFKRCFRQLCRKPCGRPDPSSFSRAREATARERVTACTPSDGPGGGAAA

O=C1C(c2ccc(Cl)c(Cl)c2)CC=CCN1[C@H](CN1CCCC1)c1ccccc1 (stereo partly drawn) [Example 9, 3-(3,4-Dichloro-phenyl)-1-(1-(S)-phenyl-2-pyrrolidin-1-yl-ethyl)-1,3,4,7-tetrahydro-azepin-2-one]
selectivity versus the human δ receptor [1]: > 100 × | selectivity versus the human μ receptor [2]: > 100 × | Ki [3]: 1 nM | ED50 [4]: < 30 mg/kg | % A (percent antagonism of formalin-induced flinching) [5]: > 80% | EC50 [6]: 2.5 nM
